Patent publication US12234227B2, “Pyrazole derivatives as H4 antagonist compounds” (NXERA PHARMA UK LIMITED, priority 2018, dated 2025)
Counter-ions that a name gives are not always drawn. Like-named read-outs stand apart in the source and are kept apart here.

Key:
[1] = target: T1, human H4 receptor (Homo sapiens, UniProt Q9H3N8); assay: H4 Antagonist Functional cAMP Gi Assay; assay type: cell-based; conditions: H4 antagonist activity; for Kb: read-out: Human H4 CAMP fpKb (converted)
T1 construct: expressed in transfected cells; host or cells: HEKf cells transduced with baculovirus
T1 sequence (Q9H3N8 whole entry): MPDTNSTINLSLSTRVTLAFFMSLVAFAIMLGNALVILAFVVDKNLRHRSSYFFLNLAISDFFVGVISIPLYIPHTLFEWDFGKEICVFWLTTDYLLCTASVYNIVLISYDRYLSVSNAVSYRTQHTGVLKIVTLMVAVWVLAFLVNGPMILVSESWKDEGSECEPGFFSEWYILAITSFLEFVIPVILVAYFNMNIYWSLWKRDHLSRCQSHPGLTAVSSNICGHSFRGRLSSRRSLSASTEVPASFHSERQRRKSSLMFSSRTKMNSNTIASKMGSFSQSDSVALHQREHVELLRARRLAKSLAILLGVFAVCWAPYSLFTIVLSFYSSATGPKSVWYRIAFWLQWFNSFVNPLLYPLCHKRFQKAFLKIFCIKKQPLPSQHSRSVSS
Protocol: H4 Antagonist Functional cAMP Gi Assay
HEKf cells were infected overnight using baculovirus expressing the human H4 receptor, then centrifuged at 1,200 rpm for 5 min, frozen in cell freezing medium (Sigma) and stored at −150° C. On the day of assay, the cells were thawed and resuspended in HBSS with 500 nM IBMX to achieve a density of 1,500 cells/well. H4 ligands were prepared in DMSO and stamped by LabCyte ECHO acoustic dispensing at 25 nL in low volume plates. 10 μL/well cells were plated in the presence of 1 μM forskolin, subjected to centrifugation at 1,200 rpm for 1 min and incubated for 30 min prior to addition of Cisbio cAMP detection reagents to a total volume 20 μL/well. For the antagonist assay, cells were pre-incubated with H4 antagonist ligands for 30 min prior to addition of EC80 concentration of histamine and a further 30 min incubation. Following detection reagent addition and shaking at room temperature for 60 min, cAMP accumulation was measured using HTRF on a PheraStar plate reader. EC50 values were generated using a 4-parameter logistical fit equation to quantify agonist potencies. Functional antagonist affinity values were generated using the Cheng-Prusoff equation to calculate a pKb value using the antagonist assay data.

[2] = target: T2, hERG (Homo sapiens, UniProt Q12809); assay: hERG Assay (QPatch automated patch clamp; single-concentration assay at 30 μM and pIC50 assay)
T2 sequence (Q12809 whole entry): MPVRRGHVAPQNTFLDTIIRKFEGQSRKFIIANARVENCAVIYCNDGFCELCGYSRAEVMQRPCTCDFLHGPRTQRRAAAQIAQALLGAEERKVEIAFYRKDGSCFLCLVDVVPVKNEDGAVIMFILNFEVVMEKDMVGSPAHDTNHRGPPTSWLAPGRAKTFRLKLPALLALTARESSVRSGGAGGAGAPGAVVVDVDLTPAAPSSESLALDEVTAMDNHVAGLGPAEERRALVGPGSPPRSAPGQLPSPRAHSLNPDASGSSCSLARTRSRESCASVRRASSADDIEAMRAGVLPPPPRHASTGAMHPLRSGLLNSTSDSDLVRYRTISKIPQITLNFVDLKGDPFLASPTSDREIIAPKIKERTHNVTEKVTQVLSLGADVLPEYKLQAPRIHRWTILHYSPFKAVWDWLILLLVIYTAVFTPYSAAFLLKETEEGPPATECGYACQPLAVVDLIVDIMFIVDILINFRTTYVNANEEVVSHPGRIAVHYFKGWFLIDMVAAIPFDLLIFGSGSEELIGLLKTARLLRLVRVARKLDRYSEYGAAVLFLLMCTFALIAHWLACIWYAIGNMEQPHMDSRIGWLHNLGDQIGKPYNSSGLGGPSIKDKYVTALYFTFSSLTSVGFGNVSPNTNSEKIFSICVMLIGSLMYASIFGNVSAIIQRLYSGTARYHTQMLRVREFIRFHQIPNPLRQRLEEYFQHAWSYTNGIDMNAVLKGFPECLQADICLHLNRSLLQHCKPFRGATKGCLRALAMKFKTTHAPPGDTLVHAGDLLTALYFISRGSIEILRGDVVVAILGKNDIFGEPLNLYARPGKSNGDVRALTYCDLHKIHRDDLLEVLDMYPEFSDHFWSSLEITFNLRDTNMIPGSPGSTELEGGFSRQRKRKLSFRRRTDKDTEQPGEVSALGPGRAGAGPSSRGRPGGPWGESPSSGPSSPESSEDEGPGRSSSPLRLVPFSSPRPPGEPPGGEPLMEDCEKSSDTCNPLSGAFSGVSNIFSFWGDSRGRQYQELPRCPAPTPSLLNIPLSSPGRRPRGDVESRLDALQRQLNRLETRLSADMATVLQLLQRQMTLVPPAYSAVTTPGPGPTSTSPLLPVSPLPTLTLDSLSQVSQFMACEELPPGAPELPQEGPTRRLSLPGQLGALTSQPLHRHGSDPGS

[3] = target: T1, human H4 receptor; assay: H4 Antagonist Functional Dynamic Mass Redistribution Assay; assay type: cell-based; conditions: H4 antagonist activity; for Kb: read-out: Human H4 DMR fpKb (converted)
Protocol: H4 Antagonist Functional Dynamic Mass Redistribution Assay
HEKf cells were infected using baculovirus expressing the human H4 receptor, plated into fibronectin-coated EPIC plates at a density of 10,000 cells/well and incubated overnight at 37° C. The medium on cells was changed to 30 μL HBSS with 20 mM HEPES per well and 30 nL DMSO were added per well by LabCyte ECHO acoustic dispensing. Following 2 h equilibration at room temperature, 30 nL of H4 ligands prepared in DMSO were stamped by LabCyte ECHO acoustic dispensing into seeded EPIC plates and cellular dynamic mass redistribution was monitored using a Corning EPIC plate reader. Following 45 min measurement, 30 nL/well of histamine EC80 was added and monitored to obtain antagonist assay data. Maximum baseline-corrected responses in […] were used to generate concentration response curves. EC50 values were generated using a 4-parameter logistical fit equation to quantify agonist potencies. Functional antagonist affinity values were generated using the Cheng-Prusoff equation to calculate a pKb value using the antagonist assay data.

[4] = target: T2, hERG; assay: in vitro
[5] = human, CHO cells stably expressing hERG

SMILES	Kb [1]	inhibition at 30 µM [2, 5]	Kb [3]	other results
CC(C)c1cc(N2CC[C@@H](N)C2)nc(N)n1 [JNJ-39758979]	–	–	–	Human H4 CAMP fpKb [1]: 8.1; hERG pIC50 ([2]; QPatch, 1, 3, 10 and 30 μM): ≤4.0; Human H4 DMR fpKb [3]: 8.5
Cc1cn[nH]c1-c1cc(N2CC[C@@H](N)C2)nc(N)n1 [Example 4-5]	10 nM	18%	2.51 nM	–
CN[C@@H]1CCN(c2cc(-c3cnn(C(F)(F)F)c3)nc(N)n2)C1 [Example 8-7, dihydrochloride]	3.16 nM	49%	3.98 nM	IC50 [2, 5]: 31.6 µM
CN[C@@H]1CCN(c2cc(-c3[nH]nc(C)c3OC)nc(N)n2)C1 [Example 17-9]	–	–	3.98 nM	–
CN[C@@H]1CCN(c2cc(-c3cnn(CCOC)c3)nc(N)n2)C1 [Example 8-10]	126 nM	–	126 nM	IC50 [2]: ≥ 100 µM
Cc1cn[nH]c1-c1cc(N2C[C@H]3CCCN[C@H]3C2)nc(N)n1 [Example 16-7, ditrifluoroacetate]	–	–	6.31 nM	IC50 [2]: ≥ 100 µM
CN[C@@H]1CCN(c2cc(-c3cnn(C)c3C)nc(N)n2)C1 [Example 12-1]	7.94 nM	–	2.51 nM	IC50 [2]: ≥ 100 µM
CN[C@@H]1CCN(c2cc(-c3[nH]ncc3C)nc(N)n2)C1 [Example 4-1, (R)-4-(4-methyl-1H-pyrazol-5-yl)-6-(3-(methylamino)pyrrolidin-1-yl)pyrimidin-2-amine]	1.26 nM	14%	0.501 nM	IC50 [2]: ≥ 100 µM
CNC1CN(c2cc(-c3[nH]nc(C)c3C)nc(N)n2)C1 [Example 17-1]	–	–	1.58 nM	IC50 [2]: ≥ 31.6 µM
CNC1CN(c2cc(-c3[nH]ncc3Br)nc(N)n2)C1 [Example 16-13]	–	–	5.01 nM	–
CN[C@@H]1CCN(c2cc(-c3[nH]ncc3Br)nc(N)n2)C1 [Example 16-12]	0.398 nM	45%	0.126 nM	–
CNC1CN(c2cc(-c3[nH]nc(C)c3Cl)nc(N)n2)C1 [Example 17-5]	–	–	0.794 nM	IC50 [2]: 25.1 µM
Cc1n[nH]c(-c2cc(N3C[C@H]4CCCN[C@H]4C3)nc(N)n2)c1Cl [Example 17-7, dihydrochloride]	–	–	31.6 nM	inhibition at 30 µM [4]: 38%
CN[C@@H]1CCN(c2cc(-c3cn[nH]c3C(C)C)nc(N)n2)C1 [Example 9-3]	15.8 nM	24%	15.8 nM	–
CCc1nn(C)cc1-c1cc(N2CC[C@@H](NC)C2)nc(N)n1 [Example 11-2, dihydrochloride]	79.4 nM	20%	79.4 nM	–
CN[C@H]1CCN(c2cc(-c3[nH]nc(C)c3Cl)nc(N)n2)C1 [Example 17-4, dihydrochloride]	–	39%	5.01 nM	–
CN[C@@H]1CCN(c2cc(-c3[nH]nc(OC)c3Cl)nc(N)n2)C1 [Example 17-17]	–	49%	5.01 nM	–
CNC1CN(c2cc(-c3cnn(C(F)(F)F)c3)nc(N)n2)C1 [Example 8-16, ditrifluoroacetate]	0.794 nM	33%	1.58 nM	IC50 [2]: > 100 µM
CNC1CN(c2cc(-c3cc(C(F)(F)F)n[nH]3)nc(N)n2)C1 [Example 15-2]	–	–	10 nM	–
CN[C@@H]1CCN(c2cc(N)nc(-c3[nH]ncc3C)c2)C1 [Example 18-1, ditrifluoroacetate]	–	–	0.631 nM	–
CN[C@@H]1CCN(c2cc(-c3cnn(C(F)F)c3C)nc(N)n2)C1 [Example 12-3]	15.8 nM	47%	6.31 nM	–

SMILES	Kb [1]	inhibition at 30 µM [2, 5]	Kb [3]	other results
CN[C@@H]1CCN(c2cc(-c3[nH]ncc3SC)nc(N)n2)C1 [Example 16-14]	–	–	25.1 nM	–
Cc1[nH]ncc1-c1cc(N2CC[C@@H](N)C2)nc(N)n1 [Example 9-7]	15.8 nM	12%	10 nM	–
CN[C@@H]1CCN(c2cc(-c3[nH]nc(C)c3F)nc(N)n2)C1 [Example 17-3]	–	–	3.98 nM	–
CN[C@@H]1CCN(c2cc(-c3[nH]ncc3Cl)nc(N)n2)C1 [Example 4-3, (R)-4-(4-chloro-1H-pyrazol-5-yl)-6-(3-(methylamino)pyrrolidin-1-yl)pyrimidin-2-amine]	1.26 nM	34%	1.26 nM	–
CN[C@@H]1CCN(c2cc(-c3[nH]ncc3C(F)F)nc(N)n2)C1 [Example 16-8, ditrifluoroacetate]	–	–	25.1 nM	–
CN[C@@H]1CCN(c2cc(-c3cnn(C)c3)nc(N)n2)C1 [Example 8-2]	31.6 nM	13%	1.26 nM	–
CN[C@@H]1CCN(c2cc(-c3[nH]nc(C)c3O)nc(N)n2)C1 [Example 17-8]	–	–	39.8 nM	–
CN[C@@H]1CCN(c2cc(-c3cn[nH]c3C(F)(F)F)nc(N)n2)C1 [Example 9-6]	6.31 nM	18%	2.51 nM	–
CN[C@@H]1CCN(c2cc(-c3cn(C(F)F)nc3C)nc(N)n2)C1 [Example 11-6]	6.31 nM	90%	3.98 nM	–
CN[C@@H]1CCN(c2cc(N)nc(-c3cnn(C)c3C)c2)C1 [Example 14-1, (R)-6-(1,5-dimethyl-1H-pyrazol-4-yl)-4-(3-(methylamino)pyrrolidin-1-yl)pyridin-2-amine dihydrochloride]	20 nM	–	12.6 nM	–
CN[C@@H]1CCN(c2cc(-c3cn(C)nc3C)nc(N)n2)C1 [Example 11-1, (R)-4-(1,3-dimethyl-1H-pyrazol-4-yl)-6-(3-(methylamino)pyrrolidin-1-yl)pyrimidin-2-amine]	12.6 nM	2%	2.51 nM	IC50 [2]: ≥ 100 µM
CN[C@@H]1CCN(c2cc(-c3cn[nH]c3C)nc(N)n2)C1 [Example 9-1]	7.94 nM	–	3.98 nM	IC50 [2]: ≥ 100 µM
CCc1n[nH]c(-c2cc(N3CC[C@@H](NC)C3)nc(N)n2)c1C [Example 7-3]	31.6 nM	–	20 nM	–
CN[C@@H]1CCN(c2cc(-c3cnn(C4CC4)c3)nc(N)n2)C1 [Example 8-4]	50.1 nM	54%	20 nM	–
CN[C@@H]1CCN(c2cc(-c3[nH]nc(C)c3C)nc(N)n2)C1 [Example 7-1, (R)-4-(3,4-dimethyl-1H-pyrazol-5-yl)-6-(3-(methylamino)pyrrolidin-1-yl)pyrimidin-2-amine dihydrochloride]	6.31 nM	14%	20 nM	–
Cc1n[nH]c(-c2cc(N3CC(N)C3)nc(N)n2)c1Cl [Example 17-6, ditrifluoroacetate]	–	–	12.6 nM	–
CN[C@@H]1CCN(c2cc(-c3[nH]ncc3C(F)(F)F)nc(N)n2)C1 [Example 16-9, ditrifluoroacetate]	–	–	20 nM	–
CN[C@@H]1CCN(c2cc(-c3c(C)n[nH]c3C)nc(N)n2)C1 [Example 10-1]	50.1 nM	21%	39.8 nM	–
CN[C@@H]1CCN(c2cc(-c3c(C)nn(C)c3C)nc(N)n2)C1 [Example 13-1]	20 nM	7%	5.01 nM	–
CCc1n[nH]c(-c2cc(N3CC[C@@H](NC)C3)nc(N)n2)c1F [Example 17-13]	–	–	50.1 nM	–
CNC1CN(c2cc(-c3[nH]nc(C(F)F)c3C)nc(N)n2)C1 [Example 17-11, ditrifluoroacetate]	–	–	3.16 nM	–
